The results in this text go back to US9650400B2, “Voriconazole sodium phosphate hydrates and polymorphs thereof” (SHAANXI SYNTHETIC PHARMACEUTICAL CO., LTD., priority 2013, dated 2017).

Like-named read-outs stand apart in the source and are kept apart here.

Series [1] is described as follows: Pharmacokinetic experiments in rabbits (intravenous, equimolar). The format is in vivo. As to conditions: rabbit. As to the method:
Two rabbits of same body weight were intravenously administered equimolar voriconazole sodium phosphate and voriconazole, respectively, and an equal volume of blood was drawn from the rabbits at different time intervals, and a metabolism status in body was determined.

Series [2] is described as follows: Hydroscopicity comparison (moisture absorption, 25° C. and 80% humidity, 24 hours). The format is physicochemical.
The format of series [3] is physicochemical. As to the method:
Sample injection was carried out by using a sample prepared by allowing the sample in Example 17 to absorb moisture, and the results are shown in Table 5.

The subject of a further series is Aspergillus fumigatus. Description: Diffused aspergillosis in guinea pigs. The format is in vivo. On the procedure:
(§1) In all experiments, particular pathogen-free guinea pigs (body weight of 400-500 g) were used. A conduit was placed in the left jugular vein of the […] infected with Aspergillus fumigatus (4,000 CFU/g body weight) or Candida albicans (4,000 CFU/g body weight) via the lateral veins of penis of the animal or via the implanted conduit. One hour after infection, the animals were subject to an intravenous therapy (5 mg/kg/day). The mean survival time (MST) and the percent survival (% sur) were recorded for each group experimental animals (the number of each group of experimental animals is listed in column “N”) within respective number of days. The amounts of […] in deep tissues (such as liver, spleen, kidney, lung, or brain) were investigated in animals which died during the experiment and in animals which survived the experiment but were later sacrificed in respective groups. “% neg” in Table 1 represents the percent of deep tissues that were culture-negative after treatment.

A further series concerns Candida albicans. The series is described as follows: Diffused candidiasis in guinea pigs. The format is in vivo. The settings on record: intravenous 5 mg/kg/day. On the procedure:
as §1

The mark [4] stands for this setting: Aspergillus fumigatus, intravenous 5 mg/kg/day.

Regarding `C[C@@H](c1ncncc1F)[C@](O)(Cn1cncn1)c1ccc(F)cc1F` [voriconazole], the “parent nucleus (voriconazole) in blood, peak area” value in series [1] (in vivo, iv, 30 min) is given as 378.34 peak area; in series [1] (in vivo, iv, 60 min), 321.69 peak area; in series [1] (in vivo, iv, 120 min) it was 150.45 peak area; in series [1] (in vivo, iv, 150 min), 78.35 peak area; in series [1] (in vivo, iv, 200 min), 29.71 peak area; in series [1] (in vivo, iv, 250 min) it was 0.234 peak area.

For the compound “Voriconazole phosphate anhydrate [reference compound]”, the “Sample weight, 0 hour” value in series [2] worked out at 0.3938 g. Besides, in series [2] (24 hours), the “Sample weight, 24 hours” value is on record as 0.4627 g and the “hydroscopicity (in words)” value is “significant hydroscopicity”. In series [3], the “stability under highly humid conditions (in words)” value was “extremely unstable”. Moreover, in series [3] (0 hour), the “Individual impurity, by weight” value is on record as “Individual impurity 0.07%” and the “Total impurity, by weight” value was “Total impurity 0.10%”.

For voriconazole sodium phosphate, the “metabolism in body (in words)” value in series [1] (intravenous) is reported as “can be metabolized into voriconazole in body”. The “Prodrug in blood, peak area” value is on record as 235.92 peak area in series [1] (intravenous, 30 min); 143.51 peak area in series [1] (intravenous, 60 min); 98.59 peak area in series [1] (intravenous, 120 min); 2.045 peak area in series [1] (intravenous, 150 min); 0 peak area in series [1] (intravenous, 200 min); 0 peak area in series [1] (intravenous, 250 min). Further, the “parent nucleus (voriconazole) in blood, peak area” value turned out to be 0.324 peak area in series [1] (intravenous, 30 min); 86.42 peak area in series [1] (intravenous, 60 min); 158.32 peak area in series [1] (intravenous, 120 min); 130.38 peak area in series [1] (intravenous, 200 min); 69.23 peak area in series [1] (intravenous, 250 min). In the series on Aspergillus fumigatus (Aspergillus fumigatus or Candida albicans infection, conclusion from Table 7), the “potency against fungal infection (in words)” value was “very potent against fungal infection”.

In the case of voriconazole sodium phosphate hydrate, in series [2], the “Sample weight, 0 hour” value came to 0.3318 g. Moreover, in series [2] (24 hours), the “Sample weight, 24 hours” value stood at 0.3441 g; the “Weight increase by moisture absorption, by weight” value is given as 3.6%; the “hydroscopicity (in words)” value is reported as “mild hydroscopicity”. Moreover, in series [3] (0 hour), the “Individual impurity, by weight” value is given as “Individual impurity 0.06%” and the “Total impurity, by weight” value was “Total impurity 0.09%”. In series [3] (24 hour moisture absorption), the “Individual impurity, by weight” value is given as “Individual impurity 0.08%” and the “Total impurity, by weight” value is “Total impurity 0.13%”. The “change in impurity after absorbing moisture (in words)” value in series [3] (24 hours) is on record as “minor change in impurity”. Moreover, in the series with Aspergillus fumigatus (Aspergillus fumigatus 4,000 CFU/g body weight, intravenous 5 mg/kg/day), the “MST (mean survival time)” value was 6.2 days. In addition, in the series on Aspergillus fumigatus (setting [4]), the “% neg (percent of deep tissues culture-negative after treatment)” value was 70%, the “% sur (percent survival)” value turned out to be 66.4% and the “g (liver): CFU/g in culture-positive liver” value is 3.5 mean log 10 CFU/g. Moreover, in the series with Candida albicans (Candida albicans 4,000 CFU/g body weight), the “MST (mean survival time)” value is 9.5 days. For the same compound, in the series with Candida albicans (Candida albicans), the “% neg (percent of deep tissues culture-negative after treatment)” value is 69%, the “% sur (percent survival)” value was determined as 76.9% and the “g (liver): CFU/g in culture-positive liver” value was 0 mean log 10 CFU/g.
